Test results: article PMC5376326, “Inhibition of ANO1 by luteolin and its cytotoxicity in human prostate cancer PC-3 cells” (PLoS ONE, 2017)
Values joined by “and” are separate entries in the source; they are usually repeats but may differ in a detail not shown here. Identical values can stand only once.

Experiments:
[1] = target: T1, ANO1 (Homo sapiens, UniProt Q5XXA6, DEL476-501); assay: Apical membrane (short-circuit) current in ANO1-expressing FRT cells; assay type: cell-based; details: for Block of ANO1 chloride channel current: pretreated 20 min, 100 μM ATP, FRT-ANO1 cells
T1 sequence (Q5XXA6 with tags, fused parts or gaps isoform Q5XXA6-5 DEL539-564): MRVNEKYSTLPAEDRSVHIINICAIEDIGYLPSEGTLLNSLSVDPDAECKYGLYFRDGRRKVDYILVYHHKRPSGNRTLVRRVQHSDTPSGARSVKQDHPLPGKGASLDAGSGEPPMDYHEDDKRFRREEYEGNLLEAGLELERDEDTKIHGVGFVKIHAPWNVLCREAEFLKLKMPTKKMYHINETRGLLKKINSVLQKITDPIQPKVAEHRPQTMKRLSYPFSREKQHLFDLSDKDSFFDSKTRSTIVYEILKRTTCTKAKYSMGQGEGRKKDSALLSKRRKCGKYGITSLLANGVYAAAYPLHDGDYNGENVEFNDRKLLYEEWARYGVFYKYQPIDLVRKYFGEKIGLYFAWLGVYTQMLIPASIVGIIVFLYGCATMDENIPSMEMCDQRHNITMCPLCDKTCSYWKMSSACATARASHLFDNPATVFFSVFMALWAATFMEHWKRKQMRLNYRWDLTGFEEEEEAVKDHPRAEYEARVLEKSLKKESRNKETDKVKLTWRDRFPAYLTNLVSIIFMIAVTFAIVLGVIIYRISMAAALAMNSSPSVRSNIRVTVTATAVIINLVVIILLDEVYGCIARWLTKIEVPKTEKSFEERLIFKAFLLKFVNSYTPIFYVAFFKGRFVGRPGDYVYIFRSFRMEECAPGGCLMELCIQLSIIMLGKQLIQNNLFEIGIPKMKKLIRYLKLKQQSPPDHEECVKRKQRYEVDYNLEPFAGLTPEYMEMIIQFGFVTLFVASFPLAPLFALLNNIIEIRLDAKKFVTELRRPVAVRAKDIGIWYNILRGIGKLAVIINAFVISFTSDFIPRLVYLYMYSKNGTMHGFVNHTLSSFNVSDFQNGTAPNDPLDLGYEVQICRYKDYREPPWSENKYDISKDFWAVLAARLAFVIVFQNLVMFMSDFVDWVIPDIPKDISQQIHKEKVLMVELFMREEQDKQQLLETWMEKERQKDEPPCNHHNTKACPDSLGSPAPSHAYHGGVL
Experimental: Snapwell inserts containing ANO1-expressing FRT cells were mounted in Ussing chambers (Physiologic Instruments, San Diego, CA). The basolateral bath was filled with HCO3^--buffered solution and the apical bath was filled with a half-Cl^- solution. The basolateral membrane was permeabilized with 250 μg/mL amphotericin B. The cells were bathed for a 20 min stabilization period and aerated with 95% O2 / 5%CO2 at 37°C. Luteolin and kaempferol were applied to the apical and basolateral bath solution and then ATP was added to the apical bath solution to induce intracellular calcium increase. Apical membrane currents were measured with an EVC4000 Multi-Channel V/I Clamp (World Precision Instruments, Sarasota, FL) and recorded using PowerLab 4/35 (AD Instruments, Castle Hill, Australia). Data were collected and analyzed with ADInstruments acquisition software Labchart Pro 7 software. The sampling rate was 4 Hz.

[2] = target: T2, ANO1 (Homo sapiens, UniProt Q5XXA6); assay: YFP quenching assay of ANO1 activity in PC-3 cells; assay type: cell-based; details: PC-3 cells expressing high levels of ANO1; indicated concentrations
T2 construct: PC-3 prostate cancer cells expressing high levels of ANO1 endogenously; endogenous in cells; host or cells: PC-3 cells (clones with high ANO1 expression; stably transfected only with the YFP halide sensor)
T2 sequence (Q5XXA6 1-986): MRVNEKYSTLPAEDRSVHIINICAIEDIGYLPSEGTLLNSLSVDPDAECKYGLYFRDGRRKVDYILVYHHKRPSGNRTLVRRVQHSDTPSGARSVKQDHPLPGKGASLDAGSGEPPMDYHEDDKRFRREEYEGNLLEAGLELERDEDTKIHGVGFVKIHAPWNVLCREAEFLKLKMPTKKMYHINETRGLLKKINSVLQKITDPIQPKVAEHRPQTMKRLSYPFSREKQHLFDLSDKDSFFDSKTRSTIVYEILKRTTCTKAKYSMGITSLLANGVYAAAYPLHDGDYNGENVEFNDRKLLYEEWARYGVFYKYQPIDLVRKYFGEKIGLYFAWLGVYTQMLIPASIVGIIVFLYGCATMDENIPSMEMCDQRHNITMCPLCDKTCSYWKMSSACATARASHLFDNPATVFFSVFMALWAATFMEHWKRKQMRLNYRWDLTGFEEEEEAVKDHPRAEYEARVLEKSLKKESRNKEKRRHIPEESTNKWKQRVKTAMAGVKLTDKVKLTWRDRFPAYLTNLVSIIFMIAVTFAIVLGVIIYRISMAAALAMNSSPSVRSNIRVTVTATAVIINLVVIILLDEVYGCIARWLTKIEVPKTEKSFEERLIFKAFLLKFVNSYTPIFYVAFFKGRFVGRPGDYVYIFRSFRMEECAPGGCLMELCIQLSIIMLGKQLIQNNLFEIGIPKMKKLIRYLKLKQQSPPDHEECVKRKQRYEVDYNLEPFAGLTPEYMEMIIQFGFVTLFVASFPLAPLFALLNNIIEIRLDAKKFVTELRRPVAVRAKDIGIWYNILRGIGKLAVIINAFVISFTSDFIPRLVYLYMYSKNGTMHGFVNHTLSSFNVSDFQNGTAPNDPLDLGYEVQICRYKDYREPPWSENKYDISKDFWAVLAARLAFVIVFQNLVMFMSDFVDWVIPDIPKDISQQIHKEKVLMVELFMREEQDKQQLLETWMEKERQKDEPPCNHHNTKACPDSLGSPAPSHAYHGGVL
Experimental: Initial iodide influx rate was determined from the initial slope of fluorescence decrease, by nonlinear regression, following infusion of iodide with ATP.

[3] = system: PC-3 cells; assay: Cell proliferation (MTS) assay in PC-3 cells; assay type: cell-based, human; details: 24 hour; for Inhibition of cell proliferation, high versus low ANO1 expressing PC-3 cells: 3-100 μM
Experimental: PC-3 cells were seeded to a confluency of ~30% on Day 1 in 96-well plates. […] After 24 hour elapsed, the influence of luteolin and kaempferol on the cell viability was estimated by MTS assay. Briefly, the cells were reincubated with MTS for 1 hour. The soluble formazan produced by cellular reduction of MTS was quantified by measuring the absorbance at 490 nm with Infinite M200 (Tecan, Grödig, Austria) microplate reader. MTS assay was done using CellTiter 96 Aqueous One Solution Cell Proliferation Assay kit (Promega, Madison, WI).

[4] = system: PC-3 cells; assay: Scratch wound healing assay in PC-3 cells; assay type: cell-based, human; details: 10 and 30 μM; 48 h post-wound
Experimental: PC-3 cells were cultured in a 96-well plate until they reached ~80% confluence as a monolayer and then the cell layer was wounded using a 96-Well WoundMaker (Essen BioScience, MI) and washed twice with fresh serum free media. The cells were incubated with serum free medium, and images of the wounds were taken using the IncuCyte ZOOM (Essen BioScience, MI). The wound recovery properties of test compounds were analyzed by the IncuCyte software.

Row | Block of ANO1 chloride channel current ([1]; 10 μM) [%] | Block of ANO1 chloride channel current ([1]; 30 μM) [%] | Block of ANO1 chloride channel current ([1]; 100 μM) [%] | SMILES | Inhibition of ANO1 activity [2] | Inhibition of cell proliferation, high versus low ANO1 expressing PC-3 cells [3] | Inhibition of wound recovery, high versus low ANO1 expressing PC-3 cells [4] | Block of PAR2-AP-triggered ANO1 activation ([1]; 100 μM, 20 min pretreatment, PAR2-AP 50 μM) | Inhibition of ATP-induced ANO1 activation (apical current) ([1]; 100 μM, ATP 100 μM) | IC50 ([1]; FRT cells expressing ANO1, activated by 100 μM ATP, read-out: IC50, ANO1 chloride current (apical membrane current)) | Reversibility of ANO1 inhibition ([1]; after washing 3 times for 5 min each, re-activation by 50 μM PAR2-AP) | Decrease of cell viability ([3]; 30 μM, PC-3 cells expressing high levels of ANO1) [%]
1 | 36.2 ± 3.0 | 55.0 ± 4.1 | 89.3 ± 2.0 | O=c1c(O)c(-c2ccc(O)cc2)oc2cc(O)cc(O)c12 [Kaempferol] | significantly inhibited | did not show the significant difference |  |  |  |  |  | 
2 |  |  |  | O=c1cc(-c2ccc(O)c(O)c2)oc2cc(O)cc(O)c12 [luteolin] | potently inhibited | significantly stronger in PC-3 cells with high levels of ANO1 expression | more strongly inhibited | almost completely blocked | almost completely inhibited | 9.8 µM and 9.77 µM and ~10 µM | reversibly inhibited | 52.6 ± 3.8
